According to patent US20140378541A1, “Synthetic Epigallocatechin Gallate (EGCG) Analogs” (WAYNE STATE UNIVERSITY, priority 2011, published 2014):

Assays:
[1] = test system: Human breast cancer MDA-MB-231 cells; assay: MTT cell proliferation assay in MDA-MB-231 cells; type: cell-based; conditions: indicated concentrations, 24 h, MTT
Procedure: Human breast cancer MDA-MB-231 cells were treated with 25 or 50 μM EGCG analogs for 24 hours, followed by MTT assay. Pro-EGCG was used as a comparison.
Human breast cancer MDA-MB-231 cells with high COMT activity were treated with 50 μM EGCG analogs for 24 hours in the absence or presence of 10 μM DNC, followed by MTT assay. Pro-EGCG was used as a comparison.
(§1) (A) EGCG analogs 23 and 30 inhibited breast cancer cell proliferation. MDA-MB-231 cells were treated with indicated concentrations of 23, 30 or metformin for 24 h, followed by a MTT assay. *, P<0.1; **, P<0.01. Columns, mean of three experiments; bars, SD. (B) EGCG analogs 23 and 30 activated AMPK at a dose-dependent manner, measured by elevated level of phosphor-AMPKα and its downstream proteins of phosphor-Raptor. […] MDA-MB-231 cells were treated with indicated concentrations of 23 or 30 for 3 h, followed by Western blot analysis with the indicated antibodies. The numbers underneath the Western results of p-AMPKα indicated normalized phosphor-AMPKα/β-actin ratios. […]
Cells were grown in a 96-well plate. Triplicate wells of cells were treated with indicated concentrations of EGCG or EGCG analogs for 24 h. After aspiration of medium, MTT (1 mg/ml) was then added to the cell cultures, followed by incubation for 3 h at 37° C. After cells were crystallized, MTT was removed and DMSO was added to dissolve the metabolized MTT product. The absorbance was then measured on a Wallac Victor3 1420 Multi-label counter at 540 nm.

p21 protein = p21 protein level, Western blot, MDA-MB-231 cells; type: cell-based, human; conditions: 3 h
Procedure: as §1
(§2) The Western blot analysis was performed as follows: A whole cell extract was prepared from the treated cells as described previously (Landis-Piwowar et al., Cancer research, 2007, 67: 4303-4310; Chen et al., Cancer research, 2007, 67: 1636-1644; Chen et al., Biochemical pharmacology, 2005, 69: 1421-1432). The cell extracts (30 μg) were then separated by an SDS-PAGE gel and transferred to nitrocellulose membranes. […]

[2] = test system: mTOR pathway (phosphor-p70-S6K); assay: mTOR pathway, phosphor-p70-S6K Western blot, MDA-MB-231 cells; type: cell-based, human; conditions: 3 h
Procedure: as §1, §2

[3] = test system: CD44high/CD24low cell population of MDA-MB-231 cells; assay: Flow cytometry of CD44high/CD24low cell population in MDA-MB-231 cells; type: cell-based, human; conditions: 48 h
Procedure: The MDA-MB-231 cells were treated with the indicated concentrations of compounds 23 and 30 for 48 hours, followed by flow cytometry analysis. Columns show mean of three experiments; bars, SD; **, p<0.01; *, p<0.1.
The treated cells were washed once with phosphate-buffered saline (PBS) and then harvested with Cell Dissociation Buffer (enzyme-free, Invitrogen, cat. #13150-016). Detached cells were washed with PBS containing 1% FCS (a wash buffer), and resuspended in the wash buffer (1,000 cells/100 μl). The cells were stained with combinations of fluorochrome-conjugated monoclonal antibodies obtained from BD Biosciences (San Diego, Calif.) against human CD44 (FITC; cat. #555478) and CD24 (PE; cat. #555428) or their respective isotype controls at concentrations recommended by the manufacturer and incubated at 4° C. in the dark for 30 to 40 min. The labeled cells were washed in the wash buffer, then fixed in PBS containing 1% paraformaldehyde, and then analyzed on a FACSVantage (BD Biosciences) (Sheridan et al. Breast Cancer Res. (2006) 8, R59).
The flow cytometry analysis was performed as follows: The treated cells were washed once with phosphate-buffered saline (PBS) and then harvested with Cell Dissociation Buffer (enzyme-free, Invitrogen, cat. #13150-016). Detached cells were washed with PBS containing 1% FCS (a wash buffer), and resuspended in the wash buffer (1,000 cells/100 μl). The cell were stained with combinations of fluorochrome-conjugated monoclonal antibodies obtained from BD Biosciences (San Diego, Calif., USA) against human CD44 (FITC; cat. #555478) and CD24 (PE; cat. #555428) or their respective isotype controls at concentrations recommended by the manufacturer and incubated at 4° C. in the dark for 30 to 40 min. The labeled cells were washed in the wash buffer, then fixed in PBS containing 1% paraformaldehyde, and then analyzed on a FACSVantage (BD Biosciences) (Sheridan et al., Breast Cancer Res., 2006, 8: R59).
Metformin could selectively target cancer stem cells and reduce the CD44high/CD24low cell population in TNBC cells through activation of AMPK signaling (Hirsch et al., Cancer Research, 2009, 69: 7507-7511). To determine whether EGCG analogs 23 and 30 can reduce the stem cell population in the breast cancer cells, the human breast cancer MDA-MB-231 cells were treated with different concentrations of compounds 23 and 30 for 48 hours. The treated cells were stained with special antibodies against human CD44 (FITC), CD24 (PE) or their respective isotype controls, followed by washing, fixing and analysed by flow cytometry.

## O=C(O[C@H]1Cc2ccccc2C[C@H]1OC(=O)c1cc(O)c(Br)c(O)c1)c1cc(O)c(Br)c(O)c1 [Compound 23]
[1]
  inhibition of cell proliferation (in words): inhibit cell proliferation in a dose-dependent manner
p21 protein
  p21 protein level: increased levels of p21 protein
[2]
  phosphor-p70-S6K level: decreased phosphor-p70-S6K
[3]
  reduction of CD44high/CD24low cell population (in words): can reduce the CD44high/CD24low cell population

## Nc1ccc(C(=O)O[C@H]2Cc3ccccc3C[C@H]2OC(=O)c2ccc(N)cc2)cc1 [Compound 30]
[1]
  inhibition of cell proliferation (in words): inhibit cell proliferation in a dose-dependent manner
p21 protein
  p21 protein level: increased levels of p21 protein
[2]
  phosphor-p70-S6K level: decreased phosphor-p70-S6K
[3]; 10 μM
  decrease of the CD44high/CD24low population: 43.3%
[3]; 20 μM
  decrease of the CD44high/CD24low population: 71.7%
[3]
  reduction of CD44high/CD24low cell population (in words): can reduce the CD44high/CD24low cell population
